“And” between values parts separate entries of the source, which are not always exact repeats. Identical values can stand only once.
System: K-562 leukemia growth, % test/control
Test: Anticancer human tumor K-562 cell line growth inhibition;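 note: spheroids exposed to compounds for 7 days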;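 for viability, T/C: 100% = DMSO vehicle wells and lower values mean fewer viable cells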
Settings: spheroids with HUVEC and MSC; for viability, T/C: stronger effect = lower value
Method in brief: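 Drug combinations with the LSD1 inhibitor iadademstat tested on tumor cells co-cultured as spheroids with endothelial cells and mesenchymal stem cells. Concentrations descended in half-log increments from clinical Cmax or 10 microM.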

[1] = curve of first compound, second compound 0.1 µM
[2] = curve of first compound, second compound 0.316 µM
[3] = curve of first compound, second compound 1 µM
[4] = curve of first compound, second compound 3.16 µM
[5] = curve of first compound, second compound 10 µM
[6] = second compound 0.1 µM, first compound 0.000316 µM
[7] = second compound 0.1 µM, first compound 0.001 µM
[8] = second compound 0.1 µM, first compound 0.00316 µM
[9] = second compound 0.1 µM, first compound 0.01 µM
[10] = second compound 0.1 µM, first compound 0.0316 µM
[11] = second compound 0.1 µM, first compound 0.1 µM
[12] = second compound 0.316 µM, first compound 0.000316 µM
[13] = second compound 0.316 µM, first compound 0.001 µM
[14] = second compound 0.316 µM, first compound 0.00316 µM
[15] = second compound 0.316 µM, first compound 0.01 µM
[16] = second compound 0.316 µM, first compound 0.0316 µM
[17] = second compound 0.316 µM, first compound 0.1 µM
[18] = second compound 1 µM, first compound 0.000316 µM
[19] = second compound 1 µM, first compound 0.001 µM
[20] = second compound 1 µM, first compound 0.00316 µM
[21] = second compound 1 µM, first compound 0.01 µM
[22] = second compound 1 µM, first compound 0.0316 µM
[23] = second compound 1 µM, first compound 0.1 µM
[24] = second compound 3.16 µM, first compound 0.000316 µM
[25] = second compound 3.16 µM, first compound 0.001 µM
[26] = second compound 3.16 µM, first compound 0.00316 µM
[27] = second compound 3.16 µM, first compound 0.01 µM
[28] = second compound 3.16 µM, first compound 0.0316 µM
[29] = second compound 3.16 µM, first compound 0.1 µM
[30] = second compound 10 µM, first compound 0.000316 µM
[31] = second compound 10 µM, first compound 0.001 µM
[32] = second compound 10 µM, first compound 0.00316 µM
[33] = second compound 10 µM, first compound 0.01 µM
[34] = second compound 10 µM, first compound 0.0316 µM
[35] = second compound 10 µM, first compound 0.1 µM

`CC(C)CC(NC(=O)C(Cc1ccccc1)NC(=O)c1cnccn1)B(O)O` (centres undefined) + NC1CC1c1ccc(-c2cccc(O)c2)cc1 was tested, and the IC50 [1] was 0.585 nM, the IC50 [2] was 0.588 nM and the IC50 [3] was 0.601 nM. The IC50 [4] was 0.576 nM, the IC50 [5] was 0.525 nM and the viability, T/C [6] was 103%. It also gave a viability, T/C [7] of 3.66%, a viability, T/C [8] of 0.7% and a viability, T/C [9] of 0.61%. It also gave a viability, T/C [10] of 0.46%, a viability, T/C [11] of 0.42% and a viability, T/C [12] of 105%. It also gave a viability, T/C [13] of 3.12%, a viability, T/C [14] of 0.63% and a viability, T/C [15] of 0.53%. The viability, T/C [16] was 0.48%, the viability, T/C [17] was 0.47% and the viability, T/C [18] was 109%. For the same compound, the viability, T/C [19] was 3.33%, the viability, T/C [20] was 0.63% and the viability, T/C [21] was 0.53%. It also gave a viability, T/C [22] of 0.39%, a viability, T/C [23] of 0.56% and a viability, T/C [24] of 102%. The viability, T/C [25] was 2.37%, the viability, T/C [26] was 0.61% and the viability, T/C [27] was 0.46%. For the same compound, the viability, T/C [28] was 0.43%, the viability, T/C [29] was 0.44% and the viability, T/C [30] was 87.7%. It also gave a viability, T/C [31] of 2.01%, a viability, T/C [32] of 0.5% and a viability, T/C [33] of 0.46%. The viability, T/C [34] was 0.43% and the viability, T/C [35] was 0.39%.

For `CC1COCCN1c1cc(-c2ccnn2C)c2ccnc(-c3ccn[nH]3)c2n1` (centres undefined), the viability, T/C (compound 0.00316 µM) was 88.3% and 28.6%, the viability, T/C (compound 0.01 µM) was 59.4% and 15.3% and the viability, T/C (compound 0.0316 µM) was 19.1% and 3.08%. The viability, T/C (compound 0.1 µM) was 5.33% and 2.16%, the viability, T/C (compound 0.316 µM) was 3.07% and 2.39% and the viability, T/C (compound 1 µM) was 2.84% and 2.02%. The IC50 (curve of compound) was 13.1 nM and < 3.16 nM.

In the case of `Cn1ncnc1C1c2n[nH]c(=O)c3cc(F)cc(c23)NC1c1ccc(F)cc1` (centres undefined) + NC1CC1c1ccc(-c2cccc(O)c2)cc1, the IC50 [1] is reported as > 100 nM, the IC50 [2] is reported as > 100 nM and the IC50 [3] is reported as > 100 nM. For the same compound, the IC50 [4] was > 100 nM, the IC50 [5] was > 100 nM and the viability, T/C [6] was 112%. The viability, T/C [7] was 110%, the viability, T/C [8] was 108% and the viability, T/C [9] was 108%. For the same compound, the viability, T/C [10] was 105%, the viability, T/C [11] was 101% and the viability, T/C [12] was 108%. It also gave a viability, T/C [13] of 105%, a viability, T/C [14] of 105% and a viability, T/C [15] of 105%. The viability, T/C [16] was 101%, the viability, T/C [17] was 97.2% and the viability, T/C [18] was 106%. It also gave a viability, T/C [19] of 102%, a viability, T/C [20] of 97.8% and a viability, T/C [21] of 96.7%. For the same compound, the viability, T/C [22] was 97.2%, the viability, T/C [23] was 95.2% and the viability, T/C [24] was 106%. The viability, T/C [25] was 100%, the viability, T/C [26] was 95.6% and the viability, T/C [27] was 98.8%. It also gave a viability, T/C [28] of 98.5%, a viability, T/C [29] of 93.2% and a viability, T/C [30] of 101%. For the same compound, the viability, T/C [31] was 101%, the viability, T/C [32] was 99.7% and the viability, T/C [33] was 98.4%. The viability, T/C [34] was 95.4% and the viability, T/C [35] was 89.1%.

For `COc1cc(C2c3cc4c(cc3C(OC3OC5COC(C)OC5C(O)C3O)C3COC(=O)C23)OCO4)cc(OC)c1O` (centres undefined) + NC1CC1c1ccc(-c2cccc(O)c2)cc1, the IC50 [1] was 32.3 nM, the IC50 [2] was 29.2 nM and the IC50 [3] was 25.2 nM. The IC50 [4] was 21.1 nM, the IC50 [5] was 12.4 nM and the viability, T/C (second compound 0.1 µM, first compound 0.00949 µM) was 89.1%. The viability, T/C (second compound 0.1 µM, first compound 0.03 µM) was 34.1%, the viability, T/C (second compound 0.1 µM, first compound 0.0949 µM) was 40% and the viability, T/C (second compound 0.1 µM, first compound 0.3 µM) was 32.2%. For the same compound, the viability, T/C (second compound 0.1 µM, first compound 0.949 µM) was 5.98%, the viability, T/C (second compound 0.1 µM, first compound 3 µM) was 1.51% and the viability, T/C (second compound 0.316 µM, first compound 0.00949 µM) was 82.5%. For the same compound, the viability, T/C (second compound 0.316 µM, first compound 0.03 µM) was 33.9%, the viability, T/C (second compound 0.316 µM, first compound 0.0949 µM) was 40% and the viability, T/C (second compound 0.316 µM, first compound 0.3 µM) was 26.1%. The viability, T/C (second compound 0.316 µM, first compound 0.949 µM) was 4.21%, the viability, T/C (second compound 0.316 µM, first compound 3 µM) was 1.39% and the viability, T/C (second compound 1 µM, first compound 0.00949 µM) was 76.1%. The viability, T/C (second compound 1 µM, first compound 0.03 µM) was 31.1%, the viability, T/C (second compound 1 µM, first compound 0.0949 µM) was 39% and the viability, T/C (second compound 1 µM, first compound 0.3 µM) was 22.8%. It also gave a viability, T/C (second compound 1 µM, first compound 0.949 µM) of 3.44%, a viability, T/C (second compound 1 µM, first compound 3 µM) of 2.06% and a viability, T/C (second compound 3.16 µM, first compound 0.00949 µM) of 68.8%. For the same compound, the viability, T/C (second compound 3.16 µM, first compound 0.03 µM) was 28.7%, the viability, T/C (second compound 3.16 µM, first compound 0.0949 µM) was 40.2% and the viability, T/C (second compound 3.16 µM, first compound 0.3 µM) was 20%. The viability, T/C (second compound 3.16 µM, first compound 0.949 µM) was 3.6%, the viability, T/C (second compound 3.16 µM, first compound 3 µM) was 2.13% and the viability, T/C (second compound 10 µM, first compound 0.00949 µM) was 57.5%. The viability, T/C (second compound 10 µM, first compound 0.03 µM) was 28.1%, the viability, T/C (second compound 10 µM, first compound 0.0949 µM) was 34.1% and the viability, T/C (second compound 10 µM, first compound 0.3 µM) was 14.8%. It also gave a viability, T/C (second compound 10 µM, first compound 0.949 µM) of 2.21% and a viability, T/C (second compound 10 µM, first compound 3 µM) of 1.35%.

For `NS(=O)(=O)OCC1CC(n2ccc3c(NC4CCc5ccccc54)ncnc32)CC1O` (centres undefined), the viability, T/C (compound 0.00949 µM) was 65.6% and 51.5%, the viability, T/C (compound 0.03 µM) was 47% and 34.4% and the viability, T/C (compound 0.0949 µM) was 49.3% and 36.1%. The viability, T/C (compound 0.3 µM) was 34.9% and 20.1%, the viability, T/C (compound 0.949 µM) was 18% and 13.5% and the viability, T/C (compound 3 µM) was 11.5% and 4.24%. The IC50 (curve of compound) was 47.6 nM and < 9.49 nM.
